The values that follow come from ChEMBL document CHEMBL1201862, “PubChem BioAssay data set” (2004).

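Following 48 hours of exposure in 96-well plates, responses at five concentrations were used to interpolate endpoints linearly. Abbreviation: GI50, concentration required for 50% inhibition of growth.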 The source made the active and inactive calls. Cut-off read from the data, not from the text of the source: active = GI50 up to about 1.1 µM and inactive = higher. A value given as a limit tells only on which side of the number the result lay.

Some test systems named below: A498; ACHN; EKVX; HCT-116; HCT-15; HT-29; Hs-578T; IGROV-1; MDA-MB-435; MOLT-4; Malme-3M; NCI-H23; NCI-H460; OVCAR-4; PC-3; SF-268; SF-539; SK-MEL-2; SN12C; SR.
Assay in all cases: NCI tumour cell line growth inhibition, 48 h

On to `C=CCSC1=N/C(=C\c2ccc(OC)cc2)C(=O)N1CC=C`, for which the GI50 with A498 is 14.9 µM (inactive); in the assay with ACHN it was 33.3 µM (inactive); in the assay with EKVX it was 19.7 µM (inactive); in the assay with HCT-116, 25.4 µM (inactive); in the assay with HCT-15, 20.8 µM; in the assay on HT-29, 20.2 µM (inactive). The GI50 with Hs-578T is 64.7 µM (inactive); with IGROV-1, > 100 µM (inactive); with MDA-MB-435 it was 26.4 µM (inactive); with MOLT-4, 13.7 µM (inactive); in the assay on Malme-3M, 27.7 µM (inactive); with NCI-H23, 28.4 µM (inactive). The GI50 in the assay with NCI-H460 is 27.6 µM (inactive); in the assay on OVCAR-4 it was 28.2 µM (inactive); in the assay on PC-3, 20.8 µM (inactive); in the assay with SF-268 it was 60.4 µM (inactive); in the assay on SF-539, 36.6 µM (inactive); in the assay with SK-MEL-2 it was 29.6 µM (inactive). The results for the GI50 in the assay on SN12C and in the assay with SR were 24.1 µM (inactive) and 13.5 µM (inactive), respectively.
In the case of `N/N=c1\[nH]c2ccccc2o1`, the GI50 with A498 was > 100 µM (inactive); in the assay on ACHN it was > 100 µM (inactive); in the assay on EKVX, > 100 µM (inactive); in the assay with HCT-116 it was 80 µM (inactive); with HCT-15 it was 77.3 µM; in the assay with HT-29, > 100 µM (inactive). Moreover, the GI50 with Hs-578T is > 100 µM (inactive); in the assay on IGROV-1, > 100 µM (inactive); with MDA-MB-435 it was > 100 µM (inactive); with MOLT-4, 24.2 µM (inactive); with Malme-3M it was > 100 µM (inactive); in the assay on NCI-H23 it was > 100 µM (inactive). Moreover, the GI50 in the assay on NCI-H460 is > 100 µM (inactive); in the assay on OVCAR-4, 46.5 µM (inactive); with PC-3 it was > 100 µM (inactive); with SF-268, > 100 µM (inactive); in the assay on SF-539, > 100 µM (inactive); in the assay on SK-MEL-2 it was > 100 µM (inactive). The results for the GI50 in the assay on SN12C and in the assay with SR were > 100 µM (inactive) and 52 µM (inactive), respectively.
As for `CCC1(O)CC(OC2CC(N(C)C)C(OC3CC(O)C(OC4CCC(=O)C(C)O4)C(C)O3)C(C)O2)c2c(cc3c(c2O)C(=O)c2c(O)ccc(O)c2C3=O)C1C(=O)OC` (stereo not given), the GI50 in the assay with A498 is < 0.01 µM (active); with ACHN it was < 0.01 µM (active); with EKVX, < 0.01 µM (active); in the assay on HCT-116 it was < 0.01 µM (active); in the assay on HCT-15, under 0.01 µM; with HT-29 it was < 0.01 µM (active). Also, the GI50 with Hs-578T is < 0.0407 µM (active); with IGROV-1, < 0.01 µM (active); in the assay on MDA-MB-435, < 0.0122 µM (active); in the assay with MOLT-4 it was < 0.01 µM (active); in the assay with Malme-3M, < 0.01 µM (active); with NCI-H23, < 0.01 µM (active). Moreover, the GI50 in the assay with NCI-H460, in the assay on OVCAR-4, in the assay on PC-3, in the assay with SF-268, in the assay on SF-539 and with SK-MEL-2 was < 0.01 µM (active) in each case. In addition, the GI50 in the assay with SN12C and with SR was < 0.01 µM (active) in each case.
On to `CNC(=O)c1cc(NC(=O)N(CCC#N)CCN(C(=O)N[C@@H](Cc2ccccc2)C(=O)N[C@@H](CC(C)C)C(=O)NC)c2ccccc2)ccc1OC`, for which the GI50 in the assay with A498 is > 49.5 µM (inactive); in the assay on ACHN, > 74.8 µM (inactive); in the assay with EKVX, > 100 µM (inactive); in the assay with HCT-116, > 63.7 µM (inactive); in the assay with HCT-15, over 100 µM; in the assay with HT-29 it was > 100 µM (inactive). Moreover, the GI50 is 58.7 µM (inactive) in the assay on Hs-578T; 24.4 µM (inactive) in the assay with IGROV-1; > 100 µM (inactive) in the assay with MDA-MB-435; 49.4 µM (inactive) in the assay on MOLT-4; 17.3 µM (inactive) in the assay with Malme-3M; > 100 µM (inactive) with NCI-H23. In addition, the GI50 is 15.8 µM (inactive) with NCI-H460; > 100 µM (inactive) in the assay with OVCAR-4; > 80 µM (inactive) in the assay with PC-3; 34.2 µM (inactive) in the assay with SF-268; 36 µM (inactive) in the assay on SF-539; 31.8 µM (inactive) in the assay with SK-MEL-2. Further, the results for the GI50 with SN12C and with SR were > 51.6 µM (inactive) and 21 µM (inactive), respectively.
Regarding `Nc1ccc(CCSSCCc2ccc(N)cc2)cc1`, the GI50 with A498 is 32.1 µM (inactive); in the assay with ACHN, 29.6 µM (inactive); in the assay on EKVX, 53.5 µM (inactive); in the assay on HCT-116, 16.1 µM (inactive); with HCT-15, 23.4 µM; in the assay on HT-29, 21.8 µM (inactive). Also, the GI50 in the assay with Hs-578T was 16.2 µM (inactive); in the assay on IGROV-1, 37.1 µM (inactive); with MDA-MB-435, 26.9 µM (inactive); with MOLT-4, 1.81 µM (inactive); in the assay on Malme-3M, 12.2 µM (inactive); in the assay on NCI-H23, 29.7 µM (inactive). Besides, the GI50 with NCI-H460 was 25.7 µM (inactive); with OVCAR-4 it was 28.6 µM (inactive); in the assay on PC-3 it was 29.4 µM (inactive); in the assay on SF-268, 18.4 µM (inactive); in the assay on SF-539, 24.9 µM (inactive); in the assay on SK-MEL-2, 20.2 µM (inactive). The GI50 with SN12C is 22.9 µM (inactive); in the assay on SR, 0.991 µM (active).
Take `CC(=O)OC1C2CCC1C1C2N=NN1c1ccc([N+](=O)[O-])cc1` (stereo not given): the GI50 is > 100 µM (inactive) in the assay with A498; > 100 µM (inactive) in the assay on ACHN; > 100 µM (inactive) with EKVX; > 100 µM (inactive) with HCT-116; over 100 µM in the assay with HCT-15; > 100 µM (inactive) with HT-29. Moreover, the GI50 in the assay on Hs-578T, in the assay with IGROV-1, with MDA-MB-435, with MOLT-4, in the assay with Malme-3M and in the assay on NCI-H23 was > 100 µM (inactive) in each case. Further, the GI50 with NCI-H460, with OVCAR-4, with PC-3, with SF-268, in the assay on SF-539 and in the assay with SK-MEL-2 was > 100 µM (inactive) each time. Further, the GI50 in the assay with SN12C is > 100 µM (inactive); in the assay with SR, 15.7 µM (inactive).
Regarding `Cc1ccc(OCC2OC(n3cnc4nc(Cl)nc(Cl)c43)CC2Oc2ccc(C)cc2)cc1` (stereo not given), the GI50 in the assay on A498 was 22.4 µM (inactive); with ACHN, 3.05 µM (inactive); in the assay on EKVX, 11.2 µM (inactive); in the assay with HCT-116, 4.55 µM (inactive); in the assay on HCT-15, 2.36 µM; in the assay with HT-29 it was 5.85 µM (inactive). Besides, the GI50 is 11.9 µM (inactive) in the assay on Hs-578T; 5.36 µM (inactive) in the assay with IGROV-1; 5.3 µM (inactive) in the assay on MDA-MB-435; 2.01 µM (inactive) with MOLT-4; 13.6 µM (inactive) in the assay with Malme-3M; 7.71 µM (inactive) with NCI-H23. Moreover, the GI50 was 6.55 µM (inactive) in the assay with NCI-H460; 15.7 µM (inactive) in the assay on OVCAR-4; 11.6 µM (inactive) in the assay with PC-3; 7.01 µM (inactive) in the assay with SF-268; 5.94 µM (inactive) in the assay on SF-539; 4.98 µM (inactive) in the assay with SK-MEL-2. Also, the GI50 with SN12C is 7.31 µM (inactive); in the assay with SR, 1.78 µM (inactive).
For `N#Cc1ccc(Nc2nc3[nH]cnc3c(=O)[nH]2)cc1`, the GI50 in the assay on A498 was > 100 µM (inactive); in the assay on ACHN it was > 100 µM (inactive); with EKVX, > 100 µM (inactive); in the assay with HCT-116, > 100 µM (inactive); with HCT-15, over 100 µM; with HT-29, > 100 µM (inactive). Moreover, the GI50 in the assay on Hs-578T, in the assay on IGROV-1, in the assay on MDA-MB-435, in the assay on MOLT-4, in the assay on Malme-3M and in the assay on NCI-H23 was > 100 µM (inactive) in each case. Moreover, the GI50 in the assay on NCI-H460, in the assay on OVCAR-4, with PC-3, with SF-268, in the assay with SF-539 and in the assay on SK-MEL-2 was > 100 µM (inactive) in each case. The GI50 with SN12C and in the assay on SR was > 100 µM (inactive) throughout.
On to `CCOC(=O)C(=O)NNc1nc2c(s1)C(=O)c1ccccc1C2=O`, for which the GI50 in the assay on A498 was 22.8 µM (inactive); in the assay with ACHN, 2.29 µM (inactive); with EKVX, 7.46 µM (inactive); with HCT-116, 2.68 µM (inactive); in the assay with HCT-15, 2.54 µM; with HT-29, 19.1 µM (inactive). Also, the GI50 in the assay on Hs-578T is 2.87 µM (inactive); with IGROV-1, 5.56 µM (inactive); with MDA-MB-435, 1.77 µM (inactive); in the assay with MOLT-4, 3.33 µM (inactive); in the assay with Malme-3M, 1.95 µM (inactive); with NCI-H23, 2.24 µM (inactive). Further, the GI50 in the assay with NCI-H460 was 10.7 µM (inactive); in the assay on OVCAR-4, 1.85 µM (inactive); in the assay with PC-3, 12 µM (inactive); with SF-268, 4.12 µM (inactive); with SF-539 it was 2.46 µM (inactive); in the assay on SK-MEL-2, 3.95 µM (inactive). The GI50 in the assay on SN12C is 1.87 µM (inactive); in the assay on SR, 0.465 µM (active).
In the case of `CC(=O)Nc1ccc(S(=O)(=O)c2nnc(NC(C)=O)s2)cc1`, the GI50 in the assay with A498 is > 100 µM (inactive); with ACHN, > 100 µM (inactive); in the assay with EKVX, > 100 µM (inactive); in the assay on HCT-116 it was > 100 µM (inactive); with HCT-15, over 100 µM; in the assay with HT-29, > 100 µM (inactive). The GI50 in the assay with Hs-578T, with IGROV-1, in the assay with MDA-MB-435, with MOLT-4, with Malme-3M and in the assay with NCI-H23 was > 100 µM (inactive) in each case. In addition, the GI50 in the assay on NCI-H460 is > 100 µM (inactive); in the assay with OVCAR-4 it was > 100 µM (inactive); in the assay on PC-3, 0.401 µM (active); in the assay on SF-268, > 100 µM (inactive); with SF-539, > 100 µM (inactive); with SK-MEL-2 it was > 100 µM (inactive). Besides, the GI50 with SN12C and in the assay with SR was > 100 µM (inactive) throughout.
